{"source": "patent US20250224401A1", "about": "“METHODS OF DIAGNOSING B CELL MALIGNANCIES, DETECTING B CELL MALIGNANCY RELAPSE, AND TREATING THEREOF” (Rutgers, The State University of New Jersey, priority 2022, published 2025)", "origin": "cited, not measured here", "test_system": "cultured human malignant B cells", "conditions": "in vitro", "data": [{"smiles": "C=CC(=O)N1CCC[C@@H](n2nc(-c3ccc(Oc4ccccc4)cc3)c3c(N)ncnc32)C1", "note": "[ibrutinib]", "values": [{"measurement": "cytotoxic effects on cultured human malignant B cells", "value": "moderate or minimal cytotoxic effects"}]}]}
